ChEMBL document CHEMBL1157339, “Sundaicumones A and B, polyprenylated acylphloroglucinol derivatives from Calophyllumsundaicum with weak activity against the glucocorticoid receptor” (J Nat Prod, 2006)

Biological target: T1, Glucocorticoid receptor (Homo sapiens, UniProt P04150)
T1 sequence (P04150 whole entry): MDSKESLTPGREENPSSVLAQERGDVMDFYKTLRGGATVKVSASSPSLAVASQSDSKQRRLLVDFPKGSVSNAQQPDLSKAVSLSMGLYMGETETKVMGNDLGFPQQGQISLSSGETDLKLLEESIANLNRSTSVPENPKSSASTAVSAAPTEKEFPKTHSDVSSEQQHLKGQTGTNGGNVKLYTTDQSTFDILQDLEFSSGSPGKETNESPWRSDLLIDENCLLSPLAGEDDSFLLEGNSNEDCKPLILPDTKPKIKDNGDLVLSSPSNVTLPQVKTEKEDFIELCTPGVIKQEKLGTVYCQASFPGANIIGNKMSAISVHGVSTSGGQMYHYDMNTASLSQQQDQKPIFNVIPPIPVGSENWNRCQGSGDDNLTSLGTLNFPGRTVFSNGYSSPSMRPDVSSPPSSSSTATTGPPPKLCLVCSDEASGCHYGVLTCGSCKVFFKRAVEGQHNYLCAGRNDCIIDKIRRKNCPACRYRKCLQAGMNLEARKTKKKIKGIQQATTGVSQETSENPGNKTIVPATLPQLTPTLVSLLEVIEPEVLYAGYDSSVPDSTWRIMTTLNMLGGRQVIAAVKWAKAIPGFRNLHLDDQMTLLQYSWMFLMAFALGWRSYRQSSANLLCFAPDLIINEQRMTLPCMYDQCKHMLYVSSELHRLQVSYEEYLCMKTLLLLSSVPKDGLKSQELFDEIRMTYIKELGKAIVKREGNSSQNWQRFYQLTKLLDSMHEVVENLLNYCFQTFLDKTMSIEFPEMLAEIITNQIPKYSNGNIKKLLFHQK
Assay: Activity at glucocorticoid receptor in human A549 cells assessed as effect on GRE promoter response by luciferase reporter assay
Format: cell-based

EC50 [µM] | SMILES
75 | CCCC(CC(=O)O)C1=C2O[C@H](C(C)(C)O)C[C@@]23C[C@H](CC=C(C)C)C(C)(C)[C@@](C(=O)C(C)CC)(C1=O)C3=O (some centres not stated) [SUNDAICUMONE B]
173 | CCCC(CC(=O)O)C1=C2O[C@H](C(C)(C)O)C[C@@]23C[C@H](CC(O)C(C)(C)O)C(C)(C)[C@@](C(=O)C(C)CC)(C1=O)C3=O (some centres not stated) [SUNDAICUMONE A]
